Measurements from the CheMixHub viscosity set.
± gives the uncertainty stated by the source.

Assay: xn = mol fraction of the nth substance listed
Details: 101 kPa

CC(C)OCCO + CCCCCCO
viscosity [mPa·s]
Details	298.15 K	303.15 K	308.15 K
x1 = 0.0533	4.409 ± 0.27	3.75 ± 0.23	3.294 ± 0.2
x1 = 0.1018	4.192 ± 0.25	3.555 ± 0.21	3.096 ± 0.19
x1 = 0.1512	3.993 ± 0.24	3.38 ± 0.2	2.917 ± 0.18
x1 = 0.2013	3.789 ± 0.23	3.2 ± 0.19	2.752 ± 0.17
x1 = 0.254	3.6 ± 0.22	3.033 ± 0.18	2.601 ± 0.16
x1 = 0.3074	3.4 ± 0.2	2.857 ± 0.17	2.449 ± 0.15
x1 = 0.4034	3.103 ± 0.19	2.596 ± 0.16	2.216 ± 0.13
x1 = 0.5044	2.834 ± 0.17	2.374 ± 0.14	2.028 ± 0.12
x1 = 0.6042	2.631 ± 0.16	2.216 ± 0.13	1.894 ± 0.11
x1 = 0.7118	2.449 ± 0.15	2.079 ± 0.12	1.79 ± 0.11
x1 = 0.8046	2.312 ± 0.14	1.985 ± 0.12	1.758 ± 0.11
x1 = 0.8418	2.305 ± 0.14	1.991 ± 0.12	1.777 ± 0.11
x1 = 0.9001	2.262 ± 0.14	1.975 ± 0.12	1.763 ± 0.11
x1 = 0.953	2.226 ± 0.13	1.952 ± 0.12	1.771 ± 0.11

O=C(Cc1ccccc1)Cc1ccccc1 + CCCCCOC(C)=O
298.15 K
Details	viscosity [mPa·s]
x1 = 0.0269	0.8322 ± 0.01
x1 = 0.0305	0.8358 ± 0.01

O=C(OCc1ccccc1)c1ccccc1 + CCOC(C)=O
298.15 K
Details	viscosity [mPa·s]
x2 = 0.0784	7.003 ± 0.12
x2 = 0.1426	5.938 ± 0.1
x2 = 0.2347	4.711 ± 0.079
x2 = 0.3002	3.881 ± 0.063
x2 = 0.4001	3.047 ± 0.048
x2 = 0.5	2.299 ± 0.035
x2 = 0.5863	1.789 ± 0.026
x2 = 0.6973	1.275 ± 0.018
x2 = 0.799	0.9116 ± 0.013
x2 = 0.898	0.6406 ± 0.0088

C[N+](C)(C)C.[OH-] + O
viscosity [mPa·s]
Details	x1 = 0.00504	x1 = 0.0103	x1 = 0.02149	x1 = 0.0337	x1 = 0.04708	x1 = 0.06181	x1 = 0.07809
298.15 K	0.9677 ± 0.017	1.119 ± 0.02	1.278 ± 0.023	1.627 ± 0.03	1.978 ± 0.038	3.087 ± 0.06	4.216 ± 0.084
303.15 K	0.8674 ± 0.015	1.007 ± 0.018	1.148 ± 0.021	1.39 ± 0.026	1.751 ± 0.033	2.66 ± 0.051	3.571 ± 0.071
313.15 K	0.7118 ± 0.013	0.818 ± 0.015	0.9314 ± 0.017	1.158 ± 0.021	1.399 ± 0.026	2.031 ± 0.039	2.665 ± 0.053
323.15 K	0.5982 ± 0.011	0.678 ± 0.012	0.7738 ± 0.014	0.971 ± 0.018	1.148 ± 0.022	1.587 ± 0.031	2.067 ± 0.041

NCC(=O)NCC(=O)NCC(=O)NCC(=O)O + O
viscosity [mPa·s]
Details	x1 = 9.96e-05	x1 = 0.000119	x1 = 0.0002046	x1 = 0.0002554	x1 = 0.0003681	x1 = 0.0004221	x1 = 0.0005133
298.15 K	0.893 ± 0.019	0.894 ± 0.019	0.8971 ± 0.019	0.8987 ± 0.019	0.9022 ± 0.02	0.9037 ± 0.02	0.9045 ± 0.02
308.15 K	0.7219 ± 0.018	0.7227 ± 0.018	0.7246 ± 0.018	0.7261 ± 0.018	0.7289 ± 0.018	0.7304 ± 0.018	0.7337 ± 0.018
318.15 K	0.5985 ± 0.016	0.5992 ± 0.016	0.6011 ± 0.016	0.6019 ± 0.016	0.6045 ± 0.016	0.606 ± 0.016	0.6079 ± 0.016

CCCCCCCCN(CCCCCCCC)CCCCCCCC + C1CCCCC1
303.15 K
Details	viscosity [mPa·s]
x2 = 0.1179	6.488 ± 0.13
x2 = 0.1582	6.33 ± 0.13
x2 = 0.3086	5.344 ± 0.11
x2 = 0.4099	4.83 ± 0.097
x2 = 0.5029	4.33 ± 0.087
x2 = 0.6074	3.468 ± 0.07
x2 = 0.7022	2.757 ± 0.055
x2 = 0.8023	2.054 ± 0.041
x2 = 0.902	1.416 ± 0.028
